Test results taken from paper PMC9602407, “Purification, Identification and Molecular Docking of Immunomodulatory Peptides from the Heads of Litopenaeus vannamei” (Foods, 2022).
One block for each molecule: values may come before it. Where a SMILES comes first, the peptide text is derived from it. Where no end group is shown, it is not given here.

What was measured:
pepsin and trypsin = assay: In vitro gastrointestinal digestion stability (pepsin, then trypsin), read out as MRPR; assay type: in vitro ADME; details: for Maximal increase of MRPR through gastrointestinal digestion compared with the untreated group: 2% (w/w) pepsin pH 2.0 37 °C 2 h, then 2% (w/w) trypsin pH 7.5 37 °C 2 h, 1 mg/mL peptide
Method: The macrophages were cultured in a medium (containing 90% DMEM medium, 10% FBS, and 1% double antibody) at 37 °C and 5% CO2. The MRPR was determined following to the MTT assay used by Xu et al.. The density of the log-phase cells was adjusted to 1 × 10^5 cells/mL, and 100 μL/well of cell suspension was seeded in 96-well plates and incubated overnight in an incubator (BB-150-CO2 incubator, Thermo Scientific, Waltham, MA, USA). The perimeter of the 96-well plate was filled with PBS. The old culture medium was then discarded, 200 μL of the sample solution was added (DMEM medium was used to dissolve the sample to the desired concentration), and control and blank groups were set up with DMEM medium. After incubating for 36 h, 200 μL of medium (containing 5% MTT) was added to each well instead of the original medium and cultured in the dark for 4 h. After the supernatant was discarded, 150 μL of DMSO was added, shaken for 20 min at room temperature, and the absorbance was detected at 490 nm by a microplate reader (ELx800, BioTek Instruments, Winooski, VT, USA). The MRPR (%) was calculated using the following formula:Macrophage relative proliferation rate (%) = (A1 − A3)/(A2 − A3) × 100 (1) where A1 and A2 represented the sample solution and DMEM medium with cells (sample and control group), respectively, and A3 represented DMEM medium with no cells (blank group).
For gastrointestinal digestion stability, computer simulated gastrointestinal digestion was first performed using the PeptideCutter (https://web.expasy.org/peptide_cutter/) (accessed on 20 June 2022) with a selection of pepsin (pH > 2) and trypsin. Then, six peptides (10 mg) were dissolved in 10 mL of distilled water, the pH was adjusted to pH 2.0 with 1 M HCl, and then 2% (w/w) pepsin was added and incubated at 37 °C for 2 h to simulate gastric digestion. The pH of the gastric digest was then adjusted to 5.3 with 0.9 M NaHCO3 solution and to pH 7.5 with 1 M NaOH solution. Following this, 2% (w/w) trypsin was added and incubated at 37 °C for 2 h to simulate intestinal digestion. After digestion, the digest was inactivated in a water bath at 100 °C for 10 min, centrifuged at 10,000 r/min for 10 min, and the supernatant was freeze-dried to obtain the gastric intestinal digest of each of the six synthetic peptides. The MRPR was determined using the sample without any treatment as the control.

splenic lymphocytes = tested on: splenic lymphocytes; set-up: method as in doi:10.1016/j.jff.2020.103887; details: 100 μg/mL; cited from earlier work
TNF-α secretion = tested on: TNF-α secretion; set-up: method as in doi:10.1016/j.jff.2020.103887; details: 100 μg/mL; cited from earlier work
[1] = set-up: method as in doi:10.1016/j.jff.2020.103887; details: 100 μg/mL; cited from earlier work

Molecule: CSCC[C@H](NC(=O)CNC(=O)[C@@H]1CCCN1)C(=O)N[C@@H](CCCNC(=N)N)C(=O)O [PGMR] (H-PGMR-OH)
Change of activity (MRPR) through gastrointestinal digestion, in words (pepsin and trypsin; pepsin then trypsin, 37 °C, 2 h each, versus untreated group): decreased, but was not significantly different

Molecule: PSPFPYFT [PSPFPYFT]
MRPR after the action of pepsin (pepsin and trypsin; 2% (w/w) pepsin, pH 2.0, 37 °C, 2 h, read-out MRPR, mean ± SD): 143.06 ± 7.71%
MRPR after the action of trypsin (pepsin and trypsin; after pepsin step, 2% (w/w) trypsin, pH 7.5, 37 °C, 2 h, read-out MRPR, mean ± SD): 148.80 ± 0.41%

Molecule: RGPPP [Pseudostellaria heterophylla peptide from the literature]
Stimulation index on splenic lymphocytes (splenic lymphocytes): 1.27
TNF-α secretion upregulated to (TNF-α secretion): 827.24 pg/mL
Cytokinesis rate increased to [1]: 123.81%

Now from value to molecule:

Maximal increase of MRPR through gastrointestinal digestion compared with the untreated group (pepsin and trypsin; read-out MRPR): 7.36%
Molecule: N=C(N)NCCC[C@H](NC(=O)[C@H](CCC(N)=O)NC(=O)[C@@H](N)Cc1c[nH]c2ccccc12)C(=O)O [WQR] (H-Trp-Gln-Arg-OH)

Maximal increase of MRPR through gastrointestinal digestion compared with the untreated group (pepsin and trypsin; read-out MRPR): 4.17%
Molecule: GPQGPPGH [GPQGPPGH]

Increase of MRPR in the gastric digestion (pepsin and trypsin; 2% (w/w) pepsin, pH 2.0, 37 °C, 2 h, versus untreated): 11.23%
Molecule: SAGFPEGF [SAGFPEGF]
